Assay [1] deals with C57BL/6J mice. The assay is described as follows: LPS-induced proteinuria in mice. The format is in vivo, mouse. Here is the method: The induction of proteinuria in female wild type C57BL/6J mice (n=6-13 per group) by LPS injection was performed as described. (Reiser et al., J Clin Invest, 2004; Yanagida-Asanuma et al., The American Journal of Pathology, 2007; Faul et al., Nat Med, 2008; Yu et al., The New England Journal of Medicine, 2013.) Briefly, 10 week old female mice were intraperitoneally injected with LPS (10 mg/kg, in saline). Control mice were injected with saline alone. Animals in the treatment groups were treated with vehicle or 10 mg/kg pyr (stock in DMSO) diluted in saline 2 h prior to the administration of LPS. Spot urine was collected from each group of animals for measurement of albuminuria as mg albumin per mg creatinine. (Faul et al., Nat Med, 2008) Results are expressed as mean±SEM. The mice were sacrificed and the efficacy of pyrintegrin was further analyzed by histochemical and immunofluorescence analyses.
For light microscopy, freshly harvested mouse kidney tissue was embedded in OCT, snap frozen in liquid nitrogen and stored at −80° C. Tissue sections were cut and fixed in −20° C. acetone before immunofluorescence staining. Sections were blocked at room temperature for 1 h and incubated with the primary antibodies against total β1 integrin (hamster anti-mouse, BioLegend), active β1 integrin (Lentner et al., PNAS, 1993.) (rat anti-mouse antibody 9EG7, BD Biosciences) and synaptopodin (polyclonal goat, SC-21537, Santa Cruz) at 4° C. overnight. Slides were incubated with appropriate fluorescently labeled secondary antibodies (Life Technologies, CA) and mounted with DAPI containing mounting solution (Vector Laboratories, Burlingame, Calif.). Fluorescence images were acquired using a Zeiss 700 LSM confocal microscope with a 20× objective and analyzed using the Zen software (Carl Zeiss Group, Hartford, Conn.). For transmission electron microscopy (TEM), tissues were fixed, embedded, sectioned, and stained as previously described. Nature Medicine, 2008.) Images were acquired using Zeiss SIGMA HD VP electron microscope. […]

Assay [2] deals with T1, human β1 integrin (Homo sapiens, UniProt P05556).
T1 construct: endogenous in cells; host or cells: conditionally immortalized human podocytes (Saleem et al. 2002)
T1 sequence (P05556 21-798): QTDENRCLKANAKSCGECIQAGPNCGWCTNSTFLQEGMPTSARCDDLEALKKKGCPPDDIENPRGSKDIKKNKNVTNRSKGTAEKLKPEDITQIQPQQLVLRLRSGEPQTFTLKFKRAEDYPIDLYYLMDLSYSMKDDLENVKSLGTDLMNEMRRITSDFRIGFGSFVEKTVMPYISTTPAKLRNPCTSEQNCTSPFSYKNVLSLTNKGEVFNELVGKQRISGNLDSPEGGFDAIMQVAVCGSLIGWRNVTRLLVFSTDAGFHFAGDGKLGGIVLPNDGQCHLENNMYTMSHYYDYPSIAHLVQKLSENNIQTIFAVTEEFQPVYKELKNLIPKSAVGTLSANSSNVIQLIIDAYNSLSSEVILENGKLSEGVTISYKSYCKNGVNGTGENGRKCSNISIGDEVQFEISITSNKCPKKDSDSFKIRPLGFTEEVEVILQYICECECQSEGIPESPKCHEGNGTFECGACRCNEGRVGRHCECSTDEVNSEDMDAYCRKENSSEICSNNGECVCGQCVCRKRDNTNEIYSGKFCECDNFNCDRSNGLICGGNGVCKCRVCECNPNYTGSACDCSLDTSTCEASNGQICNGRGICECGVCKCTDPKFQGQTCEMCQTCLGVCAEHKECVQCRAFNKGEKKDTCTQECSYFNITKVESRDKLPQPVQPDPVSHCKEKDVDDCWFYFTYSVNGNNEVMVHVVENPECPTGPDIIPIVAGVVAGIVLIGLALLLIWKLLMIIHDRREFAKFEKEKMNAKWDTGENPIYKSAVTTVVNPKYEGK
T1 sequence (P26006 33-1051 partner): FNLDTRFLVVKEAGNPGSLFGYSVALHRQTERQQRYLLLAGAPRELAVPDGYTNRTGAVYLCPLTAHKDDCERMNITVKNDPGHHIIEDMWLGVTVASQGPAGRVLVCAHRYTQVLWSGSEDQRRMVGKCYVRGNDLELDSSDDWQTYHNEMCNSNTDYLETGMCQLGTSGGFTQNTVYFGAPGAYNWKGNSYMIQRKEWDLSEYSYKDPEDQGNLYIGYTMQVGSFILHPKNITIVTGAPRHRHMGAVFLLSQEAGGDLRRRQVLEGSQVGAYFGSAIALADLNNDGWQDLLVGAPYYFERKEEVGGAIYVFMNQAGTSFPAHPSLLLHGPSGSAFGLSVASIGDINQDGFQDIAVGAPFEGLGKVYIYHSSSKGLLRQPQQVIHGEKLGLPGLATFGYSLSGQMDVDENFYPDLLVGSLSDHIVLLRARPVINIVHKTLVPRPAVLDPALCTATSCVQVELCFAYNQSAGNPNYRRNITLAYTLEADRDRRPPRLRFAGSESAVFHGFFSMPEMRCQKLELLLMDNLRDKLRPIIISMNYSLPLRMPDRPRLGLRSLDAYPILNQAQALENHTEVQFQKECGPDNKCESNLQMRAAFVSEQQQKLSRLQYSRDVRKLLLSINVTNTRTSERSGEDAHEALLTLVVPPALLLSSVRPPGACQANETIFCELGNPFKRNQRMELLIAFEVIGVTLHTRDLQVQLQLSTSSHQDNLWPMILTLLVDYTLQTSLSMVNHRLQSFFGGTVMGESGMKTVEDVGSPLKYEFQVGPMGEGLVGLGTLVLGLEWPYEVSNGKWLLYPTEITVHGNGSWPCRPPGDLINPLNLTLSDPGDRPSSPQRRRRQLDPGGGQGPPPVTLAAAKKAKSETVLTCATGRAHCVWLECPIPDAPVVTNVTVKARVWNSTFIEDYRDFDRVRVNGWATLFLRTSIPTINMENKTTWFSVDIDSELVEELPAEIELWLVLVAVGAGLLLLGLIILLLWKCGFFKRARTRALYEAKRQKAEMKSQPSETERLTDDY
Nature of the assay: Active β1 integrin (antibody 12G10) in PAN-treated human podocytes. The format is cell-based. The note with it: PAN treatment (FIG. 9D). From the text: FIG. 9A-9E. An An β1-integrin agonist pyrintegrin (pyr) protects podocytes from damage. (A) The published chemical structure of pyr. (Xu et al. PNAS, 2010.) (B-D) Pyr protects podocytes from PAN-induced loss of F-actin fibers and focal adhesions and enhances active β1-integrin levels. (B) Graphs showing the effect of pyr on the number of F-actin fibers per cell and the number of vinculin spots per cell under each treatment condition. Data shown are means 6 SEMs per cell from three replicate wells (n=500-1000 cells per well). **P, 0.01; ***P, 0.001; ****P, 0.001. (C) Representative fluorescence images of murine podocytes after various treatments and after staining with phalloidin and antiactive β1 antibody. […] (D) Representative fluorescence images of human podocytes after various treatments as shown. […] Representative images (left panel) and a bar graph (right panel) showing confocal microscopy-based quantitation of the number of migrating podocytes in a scratch wound-healing assay Lines represent the wound margins at the beginning of the experiment (0 hours). […]
Integrin-α3β1 is highly expressed in podocytes and primarily binds to the GBM-expressed ligand laminin, thereby mediating stable adhesion of podocytes to the GBM. […] Given that pyrintegrin affects integrin-β1, (Xu et al., PNAS, 2010.) we quantified the level of β1 in treated cells. […]

As to `O=S(=O)(NCC1CC1)c1ccc(Nc2nccc(N3CCCc4cc(O)ccc43)n2)cc1` [Pyrintegrin], in assay [1] (C57BL/6 mice, LPS 10 mg/kg i.p., pyrintegrin 10 mg/kg, 24 hours), the “proteinuria, albumin per creatinine in urine” value is reported as 0.668±0.074 mg albumin per 1 mg creatinine. In addition, in assay [1] (mice, 24 hours after LPS, confocal microscopy), the “active β1 integrin levels in glomeruli (antibody 9EG7)” value was “significant protection of the active β1 levels”. In assay [1] (mice, pyrintegrin 10 mg/kg, electron microscopy), the “protection from LPS-induced podocyte FP effacement” value is given as “significant protection”. In addition, in assay [2], the “level of active β1 integrin in human podocytes (antibody 12G10)” value was “rescued”.

The values above are taken from patent publication US20170269060A1, “Assays and Compounds to Treat Kidney Diseases” (Rush University Medical Center, priority 2014, published 2017).
